Measured values: patent publication US4820694A, “Modifications of 3-O-demethylmycinose in macrocin and lactenocin” (priority 1986, dated 1989)
Values after ≈ are worked out from the molar mass of the structure shown. Where two headings read alike, the source gives them in different places.

Legend:
[1] = test system: Pasteurella multocida 68C; test: broth-dilution microtiter MIC test; type: cell-based; conditions: Pasteurella multocida, 68C
Method: (§1) The MIC's in Table III were determined by standard agar-dilution assays. The MIC's in Table IV were obtained using conventional brothdilution microtiter tests.

[2] = test system: Mycoplasma gallisepticum 15E; test: broth-dilution microtiter MIC test; type: cell-based; conditions: Mycoplasmoides gallisepticum, 15E
Method: as §1

[3] = test system: Bordetella bronchiseptica; test: broth-dilution microtiter MIC test; type: cell-based; conditions: Bordetella bronchiseptica
Method: as §1

[4] = test system: Pasteurella hemolytica 22C; test: broth-dilution microtiter MIC test; type: cell-based; conditions: Pasteurella, 22C
Method: as §1

[5] = test system: Pasteurella multocida 60A; test: broth-dilution microtiter MIC test; type: cell-based; conditions: Pasteurella multocida, 60A
Method: as §1

[6] = test system: Pasteurella multocida 17E; test: broth-dilution microtiter MIC test; type: cell-based; conditions: Pasteurella multocida, 17E
Method: as §1

[7] = test system: Pasteurella multocida 22A; test: broth-dilution microtiter MIC test; type: cell-based; conditions: Pasteurella multocida, 22A
Method: as §1

[8] = test system: Streptococcus sp. 19F; test: broth-dilution microtiter MIC test; type: cell-based; conditions: Streptococcus, SP.19F
Method: as §1

[9] = test system: Pasteurella hemolytica 41D; test: broth-dilution microtiter MIC test; type: cell-based; conditions: Pasteurella, 41D
Method: as §1

[10] = test system: Mycoplasma gallisepticum 29C; test: broth-dilution microtiter MIC test; type: cell-based; conditions: Mycoplasmoides gallisepticum, 29C
Method: as §1

[11] = test system: Staphylococcus aureus 19C; test: broth-dilution microtiter MIC test; type: cell-based; conditions: Staphylococcus aureus, 19C
Method: as §1

[12] = test system: Mycoplasma hyorhinis 29E; test: broth-dilution microtiter MIC test; type: cell-based; conditions: Mycoplasma, 29E
Method: as §1

[13] = test system: Mycoplasma gallisepticum 36H; test: broth-dilution microtiter MIC test; type: cell-based; conditions: Mycoplasmoides gallisepticum, 36H
Method: as §1

[14] = test system: Mycoplasma synoviae 40A; test: broth-dilution microtiter MIC test; type: cell-based; conditions: Mycoplasmopsis synoviae, 40A
Method: as §1

[15] = test system: Pasteurella hemolytica 23C; test: broth-dilution microtiter MIC test; type: cell-based; conditions: Pasteurella, 23C
Method: as §1

[16] = test system: Pasteurella multocida 40G; test: broth-dilution microtiter MIC test; type: cell-based; conditions: Pasteurella multocida, 40G
Method: as §1

[17] = test system: Streptococcus pneumoniae Park I; test: microbe, parasite or virus in culture; type: cell-based; conditions: Streptococcus pneumoniae
Method: as §1

[18] = test system: Staphylococcus aureus S13E; test: microbe, parasite or virus in culture; type: cell-based; conditions: Staphylococcus aureus, S13E
Method: as §1

[19] = test system: Streptococcus pyogenes C203; test: protection of mice experimentally infected with S. pyogenes C203; type: in vivo; conditions: C203, sc, Subcutaneous, mice, mg/kg × 2, doses given 1 and 4 hours postinfection, read-out: ED50
Procedure, shortened: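 Mice experimentally infected with S. pyogenes C203 got two doses of test compound, at 1 and 4 h postinfection. The ED50 is the dose in mg/kg (per dose, given twice) that protected 50% of the animals.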

[20] = test system: Staphylococcus aureus X400; test: standard agar-dilution MIC assay; type: cell-based; conditions: Staphylococcus aureus, X400
Method: as §1

[21] = test system: Streptococcus Group D X66; test: standard agar-dilution MIC assay; type: cell-based; conditions: read-out: MIC
Method: as §1

[22] = test system: Klebsiella pneumoniae X68; test: standard agar-dilution MIC assay; type: cell-based; conditions: Klebsiella pneumoniae, X68; agar-dilution; read-out: MIC
Method: as §1

[23] = test system: Staphylococcus aureus V41; test: standard agar-dilution MIC assay; type: cell-based; conditions: Staphylococcus aureus, V41
Method: as §1

[24] = test system: Staphylococcus epidermidis EP12; test: standard agar-dilution MIC assay; type: cell-based
Method: as §1

[25] = test system: Staphylococcus aureus X1.1; test: standard agar-dilution MIC assay; type: cell-based; conditions: Staphylococcus aureus, X1.1
Method: as §1

[26] = test system: Staphylococcus epidermidis EPI1; test: standard agar-dilution MIC assay; type: cell-based; conditions: Staphylococcus epidermidis, EPI1
Method: as §1

[27] = test system: Escherichia coli EC14; test: standard agar-dilution MIC assay; type: cell-based; conditions: agar-dilution, read-out: MIC
Method: as §1

[28] = test system: Streptococcus pyogenes C203; test: standard agar-dilution MIC assay; type: cell-based; conditions: Streptococcus pyogenes, C203
Method: as §1

[29] = test system: Streptococcus Group D 9960; test: standard agar-dilution MIC assay; type: cell-based; conditions: GROUPD9960, read-out: MIC
Method: as §1

[30] = test system: Pseudomonas aeruginosa X239; test: standard agar-dilution MIC assay; type: cell-based; conditions: Pseudomonas aeruginosa, X239; agar-dilution; read-out: MIC
Method: as §1

[31] = test system: Pasteurella multocida; test: Pasteurella multocida infection in one-day-old chicks; type: in vivo; conditions: subcutaneously, 30 mg/kg × 2, 1 and 4 hours post-challenge
Method: Some of the formula 1 compounds have also shown in vivo antibacterial activity against infections induced by Gram-negative bacteria. Table VI summarizes the results of tests in which illustrative compounds were evaluated against a Pasteurella infection in one-day-old chicks. The compounds were administered by subcutaneous injection at a dosage of 30 mg/kg, 1 and 4 hours post-challenge of the chicks with Pasteurella multocida (0.1 ml of a 10^-4 dilution of a twenty-hour tryptose broth culture of an avian P. multocida given subcutaneously). In these tests, unless indicated otherwise, all non-medicated infected chicks died within 24 hours of Pasteurella challenge.
^a Administered subcutaneously; 30 mg/kg × 2

[32] = test system: Haemophilus influenzae C.L.; test: standard agar-dilution MIC assay; type: cell-based; conditions: Haemophilus influenzae; agar-dilution; Ampicillin-sensitive strain; read-out: MIC
Method: as §1

[33] = test system: Haemophilus influenzae 76; test: standard agar-dilution MIC assay; type: cell-based; conditions: Haemophilus influenzae, 76; agar-dilution; Ampicillin-resistant strain; read-out: MIC
Method: as §1

[34] = broth-dilution microtiter, read-out: MIC

Compound: CCC1OC(=O)CC(O)C(C)C(OC2OC(C)C(O)C(N(C)C)C2OC(C)=O)C(CC=O)CC(C)C(=O)C=CC(C)=CC1COC1OC(C)C(OC(C)=O)C(O)C1OC (stereo not drawn) [Compound 21, 2',4"-Di-O-acetyl-lactenocin]
- MIC [1]: 12.5 µg/mL (≈ 14.8 µM)
- MIC [2]: 50 µg/mL (≈ 59.4 µM)
- MIC [3, 34]: > 50 µg/mL
- MIC [4]: 50 µg/mL (≈ 59.4 µM)
- MIC [5]: 12.5 µg/mL (≈ 14.8 µM)
- MIC [6]: 12.5 µg/mL (≈ 14.8 µM)
- MIC [7]: 12.5 µg/mL (≈ 14.8 µM)
- MIC [8]: 1.56 µg/mL (≈ 1.85 µM)
- MIC [9]: 50 µg/mL (≈ 59.4 µM)
- MIC [10]: 3.12 µg/mL (≈ 3.71 µM)
- MIC [11]: 3.12 µg/mL (≈ 3.71 µM)
- MIC [12]: 6.25 µg/mL (≈ 7.42 µM)
- MIC [13]: 50 µg/mL (≈ 59.4 µM)
- MIC [14]: 3.12 µg/mL (≈ 3.71 µM)
- MIC [15]: 50 µg/mL (≈ 59.4 µM)
- MIC [16]: 12.5 µg/mL (≈ 14.8 µM)
- MIC [17]: 1 µg/mL (≈ 1.19 µM)
- MIC [18]: 4 µg/mL (≈ 4.75 µM)
- ED50 [19]: 5.5 mg/kg
- MIC [20]: 8 µg/mL (≈ 9.5 µM)
- MIC [21]: 4 µg/mL (≈ 4.75 µM)
- MIC [22]: > 128 µg/mL
- MIC [23]: 4 µg/mL (≈ 4.75 µM)
- MIC [24]: 4 µg/mL (≈ 4.75 µM)
- MIC [25]: 2 µg/mL (≈ 2.38 µM)
- MIC [26]: 2 µg/mL (≈ 2.38 µM)
- MIC [27]: > 128 µg/mL
- MIC [28]: 1 µg/mL (≈ 1.19 µM)
- MIC [29]: 4 µg/mL (≈ 4.75 µM)
- MIC [30]: > 128 µg/mL
- Number of Deaths/Number Treated [31]: 3/10

Compound: CCC1OC(=O)CC(O)C(C)C(OC2OC(C)C(O)C(N(C)C)C2OC(C)=O)C(CC=O)CC(C)C(=O)C=CC(C)=CC1COC1OC(C)C(OC(=O)COc2ccccc2)C(O)C1OC (stereo not drawn) [Compound 33, 2'-O-Acetyl-4"-O-phenoxyacetyl-lactenocin]
- MIC [1, 34]: 6.25 µg/mL (≈ 6.69 µM)
- MIC [2, 34]: 12.5 µg/mL (≈ 13.4 µM)
- MIC [3]: 50 µg/mL (≈ 53.5 µM)
- MIC [4, 34]: 12.5 µg/mL (≈ 13.4 µM)
- MIC ([5]; broth-dilution microtiter, Avian isolate, read-out: MIC): 6.25 µg/mL (≈ 6.69 µM)
- MIC ([6]; broth-dilution microtiter, Bovine isolate, read-out: MIC): 12.5 µg/mL (≈ 13.4 µM)
- MIC [7, 34]: 12.5 µg/mL (≈ 13.4 µM)
- MIC [8, 34]: 0.39 µg/mL (≈ 0.418 µM)
- MIC [9, 34]: 12.5 µg/mL (≈ 13.4 µM)
- MIC [10, 34]: 0.39 µg/mL (≈ 0.418 µM)
- MIC [11]: 0.78 µg/mL (≈ 0.835 µM)
- MIC [12]: 3.12 µg/mL (≈ 3.34 µM)
- MIC [13, 34]: 12.5 µg/mL (≈ 13.4 µM)
- MIC [14, 34]: 0.39 µg/mL (≈ 0.418 µM)
- MIC [15, 34]: 12.5 µg/mL (≈ 13.4 µM)
- MIC [16, 34]: 12.5 µg/mL (≈ 13.4 µM)
- MIC ([17]; agar-dilution, read-out: MIC): 0.25 µg/mL (≈ 0.268 µM)
- MIC [18]: 1 µg/mL (≈ 1.07 µM)
- ED50 [19]: 1.9 mg/kg
- MIC ([20]; agar-dilution, Methicillin-resistant strain, read-out: MIC): 2 µg/mL (≈ 2.14 µM)
- MIC [21]: 1 µg/mL (≈ 1.07 µM)
- MIC [22]: > 128 µg/mL
- MIC [23]: 1 µg/mL (≈ 1.07 µM)
- MIC [25]: 1 µg/mL (≈ 1.07 µM)
- MIC [26]: 1 µg/mL (≈ 1.07 µM)
- MIC [27]: > 128 µg/mL
- MIC [28]: 0.5 µg/mL (≈ 0.535 µM)
- MIC [29]: 1 µg/mL (≈ 1.07 µM)
- MIC [32]: 8 µg/mL (≈ 8.56 µM)
- MIC [33]: 8 µg/mL (≈ 8.56 µM)
- MIC [30]: > 128 µg/mL
- Number of Deaths/Number Treated [31]: 8/10
